Measurements from article PMC5298231, “The Malaria Parasite's Lactate Transporter PfFNT Is the Target of Antiplasmodial Compounds Identified in Whole Cell Phenotypic Screens” (PLoS Pathogens, 2017).

Tested on: erythrocytes infected with 3D7 trophozoites
Assay type: cell-based, Plasmodium falciparum

Question: Which “HLD, Average” value (6hr) does the source give for `COc1ccc2c(c1)OC(O)(C(F)(F)C(F)(F)F)CC2=O` (stereo not shown) [MMV007839] here?
Answer: 0.5581

Question: What about the “HVDD, Average” value (6hr) of the same molecule?
Answer: 0.02571

Question: And the “Histidine, Average” value (6hr)?
Answer: 1.263

Question: What about the “Homoserine, Average” value (6hr) of the same molecule?
Answer: 0.6347

Question: And the “Hydroxy-L-proline, Average” value (6hr)?
Answer: -0.1227

Question: What about the “Hypoxanthine, Average” value (6hr) of the same molecule?
Answer: 0.2056

Question: What about the “IDP, Average” value (6hr) of the same molecule?
Answer: 0.2522

Question: And the “IMP, Average” value (6hr)?
Answer: -0.2109

Question: What about the “Inosine, Average” value (6hr) of the same molecule?
Answer: 0.5174

Question: And the “Isoleucine, Average” value (6hr)?
Answer: 0.1143

Question: What about the “LD, Average” value (6hr) of the same molecule?
Answer: 0.1248

Question: What about the “Lactate, Average” value (6hr) of the same molecule?
Answer: 2.505

Question: What about the “Leucine, Average” value (6hr) of the same molecule?
Answer: 0.06585

Question: What about the “Lysine, Average” value (6hr) of the same molecule?
Answer: 1.1316

Question: What about the “Malate, Average” value (6hr) of the same molecule?
Answer: -0.236

Question: And the “Mannitol, Average” value (6hr)?
Answer: -0.1109

Question: What about the “Methionine, Average” value (6hr) of the same molecule?
Answer: -0.2224

Question: What about the “Myristic acid, Average” value (6hr) of the same molecule?
Answer: -0.7184

Question: What about the “N-Acetyl-glutamate, Average” value (6hr) of the same molecule?
Answer: -1.091

Question: And the “N-Carbamoyl-L-Aspartate, Average” value (6hr)?
Answer: -1.386

Question: What about the “NAD+, Average” value (6hr) of the same molecule?
Answer: 0.1336

Question: What about the “NADH, Average” value (6hr) of the same molecule?
Answer: -2.783

Question: What about the “NADP+, Average” value (6hr) of the same molecule?
Answer: -0.3285

Question: And the “Ornithine, Average” value (6hr)?
Answer: -0.4177

Question: And the “Orotate, Average” value (6hr)?
Answer: -1.6355

Question: And the “Orotidine 5-Phosphate, Average” value (6hr)?
Answer: -1.249

Question: What about the “Orotidine, Average” value (6hr) of the same molecule?
Answer: -0.6749

Question: And the “PAEF, Average” value (6hr)?
Answer: 0.8061

Question: And the “PD, Average” value (6hr)?
Answer: 1.197

Question: And the “PDAV, Average” value (6hr)?
Answer: 1.2

Question: What about the “PE, Average” value (6hr) of the same molecule?
Answer: 1.699

Question: And the “PEE, Average” value (6hr)?
Answer: 1.042

Question: And the “PHF, Average” value (6hr)?
Answer: 0.9826

Question: What about the “PPVQ, Average” value (6hr) of the same molecule?
Answer: -0.2514

Question: What about the “PVNF, Average” value (6hr) of the same molecule?
Answer: 0.6194

Question: And the “PVQ, Average” value (6hr)?
Answer: 1.502

Question: What about the “PVQA, Average” value (6hr) of the same molecule?
Answer: -0.1116

Question: What about the “Pantothenate, Average” value (6hr) of the same molecule?
Answer: -0.4384

Question: And the “Phenylalanine, Average” value (6hr)?
Answer: 0.1437

Question: What about the “Phosphoenolpyruvate, Average” value (6hr) of the same molecule?
Answer: 0.09862

Question: And the “Pipecolate, Average” value (6hr)?
Answer: 1.035

Question: And the “Proline, Average” value (6hr)?
Answer: 0.2232

Question: What about the “Pyridoxine, Average” value (6hr) of the same molecule?
Answer: 0.219

Question: What about the “Pyruvate, Average” value (6hr) of the same molecule?
Answer: 2.1785

Question: What about the “Ribose-5-Phosphate, Average” value (6hr) of the same molecule?
Answer: 0.5462

Question: What about the “S-Adenosyl-L-homocysteine, Average” value (6hr) of the same molecule?
Answer: -0.1116

Question: What about the “SDGLA, Average” value (6hr) of the same molecule?
Answer: -0.7918

Question: And the “SFGD, Average” value (6hr)?
Answer: -0.1482

Question: What about the “Sedoheptulose-1/7-Phosphate, Average” value (6hr) of the same molecule?
Answer: 0.1885

Question: And the “Serine, Average” value (6hr)?
Answer: 0.02139

Question: What about the “Succinate Semialdehyde, Average” value (6hr) of the same molecule?
Answer: -0.438

Question: And the “Succinate, Average” value (6hr)?
Answer: 0.1816

Question: What about the “TNVK, Average” value (6hr) of the same molecule?
Answer: -0.1213

Question: And the “Threonine, Average” value (6hr)?
Answer: 0.6908

Question: What about the “Tryptophan, Average” value (6hr) of the same molecule?
Answer: -0.04867

Question: What about the “Tyrosine, Average” value (6hr) of the same molecule?
Answer: 0.1841

Question: What about the “UDP, Average” value (6hr) of the same molecule?
Answer: -0.5016

Question: And the “UDP-N-acetyl-D-glucosamine, Average” value (6hr)?
Answer: -0.184

Question: What about the “UDP-glucose, Average” value (6hr) of the same molecule?
Answer: 0.0071

Question: And the “UMP, Average” value (6hr)?
Answer: -0.08541

Question: What about the “Uracil, Average” value (6hr) of the same molecule?
Answer: -0.6376

Question: And the “Valine, Average” value (6hr)?
Answer: 0.1675

Question: What about the “Xanthine, Average” value (6hr) of the same molecule?
Answer: -0.5471

Question: What about the “dADP, Average” value (6hr) of the same molecule?
Answer: -0.4329

Question: And the “dATP, Average” value (6hr)?
Answer: 0.01926

Question: And the “dCDP, Average” value (6hr)?
Answer: 0.5589

Question: And the “dGMP, Average” value (6hr)?
Answer: -0.355

Question: And the “dTMP, Average” value (6hr)?
Answer: 0.4667

Question: What about the “dTTP, Average” value (6hr) of the same molecule?
Answer: 0.06317

Question: And the “dUMP, Average” value (6hr)?
Answer: 1.053

Question: And the “myo-Inositol, Average” value (6hr)?
Answer: -0.254

Question: And the “sn-Glycerol 3-Phosphate, Average” value (6hr)?
Answer: 1.275

Question: And the “sn-glycero-3-Phospho-1-inositol, Average” value (6hr)?
Answer: 0.1242

Question: And the “1-3 (2-3)-diphopshateglycerate log2 ratio (+MMV007839/-MMV007839)” value (Av 1hr, 6 μM)?
Answer: 0.8283

Question: And the “2-Hydroxyglutarate log2 ratio (+MMV007839/-MMV007839)” value (Av 1hr, 6 μM)?
Answer: -0.2432

Question: And the “2-Ketoglutarate log2 ratio (+MMV007839/-MMV007839)” value (Av 1hr, 6 μM)?
Answer: -0.436

Question: And the “3-Phosho-D-glycerate log2 ratio (+MMV007839/-MMV007839)” value (Av 1hr, 6 μM)?
Answer: 0.004248

Question: What about the “3-Phospho-serine log2 ratio (+MMV007839/-MMV007839)” value (Av 1hr, 6 μM) of the same molecule?
Answer: -0.2778

Question: And the “4-Aminobutanoate log2 ratio (+MMV007839/-MMV007839)” value (Av 1hr, 6 μM)?
Answer: 1.193

Question: What about the “5-Phosphoribosyl-1-pyrophosphate log2 ratio (+MMV007839/-MMV007839)” value (Av 1hr, 6 μM) of the same molecule?
Answer: 0.3507

Question: And the “ADP log2 ratio (+MMV007839/-MMV007839)” value (Av 1hr, 6 μM)?
Answer: -0.09347

Question: And the “AMP log2 ratio (+MMV007839/-MMV007839)” value (Av 1hr, 6 μM)?
Answer: 0.1805

Question: And the “ATLS log2 ratio (+MMV007839/-MMV007839)” value (Av 1hr, 6 μM)?
Answer: 0.06136

Question: And the “ATP log2 ratio (+MMV007839/-MMV007839)” value (Av 1hr, 6 μM)?
Answer: -0.05715

Question: What about the “Acetyl-CoA log2 ratio (+MMV007839/-MMV007839)” value (Av 1hr, 6 μM) of the same molecule?
Answer: -0.4647

Question: What about the “Acetyl-L-alanine log2 ratio (+MMV007839/-MMV007839)” value (Av 1hr, 6 μM) of the same molecule?
Answer: 0.1907

Question: What about the “Adenine log2 ratio (+MMV007839/-MMV007839)” value (Av 1hr, 6 μM) of the same molecule?
Answer: -0.6208

Question: What about the “Arginine log2 ratio (+MMV007839/-MMV007839)” value (Av 1hr, 6 μM) of the same molecule?
Answer: 0.574

Question: And the “Asparagine log2 ratio (+MMV007839/-MMV007839)” value (Av 1hr, 6 μM)?
Answer: 0.04802

Question: What about the “Aspartic Acid log2 ratio (+MMV007839/-MMV007839)” value (Av 1hr, 6 μM) of the same molecule?
Answer: 0.001665

Question: And the “CDP log2 ratio (+MMV007839/-MMV007839)” value (Av 1hr, 6 μM)?
Answer: -0.01089

Question: And the “CDP-ethanolamine log2 ratio (+MMV007839/-MMV007839)” value (Av 1hr, 6 μM)?
Answer: 0.2765

Question: What about the “CMP log2 ratio (+MMV007839/-MMV007839)” value (Av 1hr, 6 μM) of the same molecule?
Answer: 0.1684

Question: What about the “CTP log2 ratio (+MMV007839/-MMV007839)” value (Av 1hr, 6 μM) of the same molecule?
Answer: -0.2804

Question: And the “Cholesteryl sulfate log2 ratio (+MMV007839/-MMV007839)” value (Av 1hr, 6 μM)?
Answer: -0.2972

Question: And the “Citrate log2 ratio (+MMV007839/-MMV007839)” value (Av 1hr, 6 μM)?
Answer: -0.1229

Question: And the “CoA log2 ratio (+MMV007839/-MMV007839)” value (Av 1hr, 6 μM)?
Answer: -0.4384

Question: And the “Cyclic AMP log2 ratio (+MMV007839/-MMV007839)” value (Av 1hr, 6 μM)?
Answer: -0.8135

Question: And the “Cytidine log2 ratio (+MMV007839/-MMV007839)” value (Av 1hr, 6 μM)?
Answer: -0.7749

Question: And the “D-Glucono-1-4-lactone log2 ratio (+MMV007839/-MMV007839)” value (Av 1hr, 6 μM)?
Answer: 1.593

Question: What about the “DALT log2 ratio (+MMV007839/-MMV007839)” value (Av 1hr, 6 μM) of the same molecule?
Answer: -0.5028

Question: What about the “DEVG log2 ratio (+MMV007839/-MMV007839)” value (Av 1hr, 6 μM) of the same molecule?
Answer: 0.001555

Question: What about the “DGLA log2 ratio (+MMV007839/-MMV007839)” value (Av 1hr, 6 μM) of the same molecule?
Answer: -0.4525

Question: And the “DLS log2 ratio (+MMV007839/-MMV007839)” value (Av 1hr, 6 μM)?
Answer: -0.423

Question: And the “Deoxycytidine log2 ratio (+MMV007839/-MMV007839)” value (Av 1hr, 6 μM)?
Answer: 1.92

Question: What about the “Dihydroorotate log2 ratio (+MMV007839/-MMV007839)” value (Av 1hr, 6 μM) of the same molecule?
Answer: -0.5278
